With `Clc1c(Cl)c(Cl)c(Cl)c(Cl)c1Cl`, the logP was 5.73. The result for `Clc1cc(Cl)c(Cl)c(-c2c(Cl)c(Cl)cc(Cl)c2Cl)c1Cl` reads 7.73. As to `COP(=S)(OC)Oc1cc(Cl)c(I)cc1Cl`, the logP is 5.51.

`Clc1cccc(Cl)c1-c1c(Cl)cccc1Cl` returned a logP of 5.94.

In turn, `CCOP(=S)(OCC)Oc1cc(Cl)c(Br)cc1Cl` yielded a logP of 6.15. The result for `CCCCc1ccccc1` reads 4.38.

As for `Clc1ccc(-c2ccc(Cl)c(Cl)c2)cc1Cl`, the logP amounted to 6.63. `ClC1=C(Cl)[C@]2(Cl)[C@H]3[C@H]([C@@H]4C=C[C@H]3C4)[C@@]1(Cl)C2(Cl)Cl` (racemic) gave a logP of 6.5. The molecule `Clc1c(Cl)c(Cl)c(-c2ccccc2)c(Cl)c1Cl` returned a logP of 6.75. The result for `CCCCC(CC)COC(=O)c1ccccc1C(=O)OCC(CC)CCCC` (stereo not drawn) reads 7.6; that for `ClC1=C(Cl)[C@]2(Cl)[C@@H]3[C@@H]4C[C@@H]([C@H]5O[C@@H]45)[C@@H]3[C@@]1(Cl)C2(Cl)Cl` (single isomer, unassigned), 5.4. The figure for `Clc1cc(-c2cc(Cl)c(Cl)c(Cl)c2)cc(Cl)c1Cl` is 7.41; for `CCc1ccc2c(c1)C(=O)c1ccccc1C2=O` it is 4.37.

A word on the logP: it is the decadic logarithm of the partition coefficient of the neutral form, usually between octanol and water.

Source of the values: the OPERA property sets (Mansouri et al. 2018).
